Test results reported in paper PMC6951458 (Clinical and Translational Science, 2019).
Where two headings read alike, the source gives them in different places. Marks after values point to notes of the source that are not given here.

Tests used:
[1] = test system: mouse model of CML‐BC; conditions: cited from earlier work
[2] = test system: rat; experiment: In vivo micronucleus test in rat
[3] = test system: stem cells derived from patients with CML‐BC or Philadelphia chromosome–positive acute lymphoblastic leukemia; conditions: in combination with tyrosine kinase inhibitors; cited from earlier work
[4] = test system: pro‐inflammatory cytokines, chemokines, and growth factors; conditions: in vivo; cited from earlier work
[5] = biological target: phosphodiesterase 3; experiment: Phosphodiesterase 3 activity; assay type: biochemical; conditions: read-out: IC50, phosphodiesterase 3
[6] = test system: dogs; experiment: 4-week study in dogs; assay type: in vivo, dog; conditions: dogs
[7] = 4-week study in dogs; assay type: in vivo, dog; conditions: dog
[8] = First-in-human pharmacokinetics in healthy volunteers; assay type: in vivo; conditions: for Mean t1/2 / AUC(0-inf) / AUC(0-t) / Cmax / Tmax / Vd/F: healthy volunteers; for Mean t1/2 / AUC(0-inf) / AUC(0-t) / Cmax / Tmax / half-life / Vd/F: [SD]; for AUC(0-inf) / AUC(0-t) / Cmax / Tmax / half-life / Vd/F: human, plasma, po; for AUC(0-inf): Mean AUC0−inf; for AUC(0-t): Mean AUC0−t; for Cmax: Mean Cmax; for Tmax: Mean Tmax; for half-life: Mean t1/2, healthy volunteers
[9] = test system: healthy volunteers; conditions: for AEs grade 1–2 CTCAE, % / AEs grade 3 CTCAE: ↑CK, % / Gastrointestinal disorders, % / Investigations, % / ↑ALT (%) / ↑CK (%) / ↓WBC (%) / SAEs: seizure (%) / Diarrhea, %: number of subjects (%); for Diarrhea, %: grade 1–2
[10] = test system: healthy volunteers; experiment: Intensive ECG monitoring in healthy volunteers; assay type: in vivo, human
[11] = Plasma protein binding; assay type: in vitro ADME, human, dog
[12] = test system: bacteria; experiment: Bacterial reverse mutation assay; assay type: cell-based
[13] = test system: plasma cytokines, chemokines, and growth factors; assay type: in vivo, human; conditions: IL‐1β, IL‐2, IL‐4, IL‐6, IL‐8, IFNγ, TNFα; IL‐15, IL‐17A; MCP‐1, and IP‐10
[14] = In vitro induction of chromosome aberrations; assay type: cell-based
[15] = test system: dogs; experiment: Single oral dose-escalation study in dogs; assay type: in vivo, dog; conditions: at 30 mg/kg/day
[16] = 10 mg, oral 10 mg single dose FASTED (N = 16)
[17] = 10 mg, oral 10 mg single dose FED (N = 9)
[18] = 20 mg, oral 20 mg single dose FASTED (N = 14)
[19] = 10 mg single dose FASTED (N = 16)
[20] = 20 mg single dose FASTED (N = 14)

## N#Cc1ccc(-c2cnc3ccc(-c4ccc(C(=O)N5CCOCC5)cc4)cn23)cc1 [ETC‐206]
[1]; in combination with tyrosine kinase inhibitors
  tumor growth: inhibited tumor growth
[1]; single agent
  antitumor activity: no antitumor activity
[2]
  mutagenicity: did not show any mutagenicity
[3]
  survival of stem cells: impeded survival
[4]
  plasma levels of pro‐inflammatory cytokines, chemokines, and growth factors: decrease plasma levels
[5]
  IC50: 2250 nM
[6]
  highest unbound mean free fraction AUC0−last at NOAEL: 670 ng·h/mL
  highest unbound mean free fraction Cmax at NOAEL: 11.8 ng/mL
[6]; 4 weeks, medium and high doses
  bile duct proliferation: minimal to mild
  liver enzymes (ALT, alkaline phosphatase, gamma glutamyltransferase): increase in liver enzymes
[7]; in vivo
  NOAEL at 4 weeks: 3 mg/kg/day
[7]; plasma, 3 mg/kg/day
  AUC(0-t): 7230 ng·h/mL
  Cmax: 935 ng/mL
[8]; 10 to 20 mg single doses in fasted condition
  dose proportionality: showed dose proportionality
[8]; oral 10 mg single dose FASTED (N = 16)
  Mean t1/2: 22.95 [5.63] hour
[8]; oral 10 mg single dose FED (N = 9)
  Mean t1/2: 27.57 [5.68] hour
[8]; [16]
  AUC(0-inf): 24400 ng·h/mL
  AUC(0-t): 21900 ng·h/mL
  Cmax: 927 ng/mL
  Tmax: 1.11 h
  half-life: ~23 h
  Vd/F: 13.9 L
[8]; [17]
  AUC(0-inf): 30000 ng·h/mL
  AUC(0-t): 28700 ng·h/mL
  half-life: ~28 h
[8]; [18]
  AUC(0-inf): 60300 ng·h/mL
  AUC(0-t): 57800 ng·h/mL
  Cmax: 1950 ng/mL
  Tmax: 1 h
  half-life: 25.8 h
  Vd/F: 12.5 L
[9]; general safety
  serious adverse events related to ETC‐206: did not show any serious adverse events
[9]; [19]
  AEs grade 1–2 CTCAE, %: 9 (56)
  AEs grade 3 CTCAE: ↑CK, %: 0
  Gastrointestinal disorders, %: 4 (25)
  Investigations, %: 5 (31)
  ↑ALT (%): 1 (6)
  ↑CK (%): 1 (6)
  ↓WBC (%): 3 (19)
  Diarrhea, %: 3 (19)
[9]; 10 mg single dose FASTED (N = 16), not drug-related
  SAEs: seizure (%): 1 (6) ^a
[9]; 10 mg single dose FED (N = 9)
  AEs grade 1–2 CTCAE, %: 9 (100)
  AEs grade 3 CTCAE: ↑CK, %: 0
  Gastrointestinal disorders, %: 2 (22)
  Investigations, %: 1 (11)
  SAEs: seizure (%): 0
  ↑ALT (%): 0
  ↑CK (%): 0
  ↓WBC (%): 1 (11)
  Diarrhea, %: 2 (22) ^f
[9]; [20]
  AEs grade 1–2 CTCAE, %: 11 (79)
  Gastrointestinal disorders, %: 3 (21)
  Investigations, %: 1 (7)
  SAEs: seizure (%): 0
  ↑ALT (%): 0
  ↑CK (%): 0
  ↓WBC (%): 0
  Diarrhea, %: 3 (21) ^g
[9]; 20 mg single dose FASTED (N = 14), not drug-related
  AEs grade 3 CTCAE: ↑CK, %: 1 (7) ^b
[9]; single dose, fasted, no dose‐limiting toxicity, not the maximum tolerated dose
  maximum administered dose: 20 mg
[10]; mixed effects regression model, flat slope (P = 0.7) of each dose and condition
  relationship between ETC‐206 plasma concentrations and changes from baseline of QTcF: no relationship
[10]; range of doses explored (10 and 20 mg single doses)
  proarrhythmic risks: no evidence for ETC‐206 proarrhythmic risks
[11]
  plasma protein binding in humans compared with dogs: higher
[12]
  mutagenicity: did not show any mutagenicity
[13]
  activity on plasma cytokines, chemokines, and growth factors: did not show any activity
[14]
  mutagenicity: did not show any mutagenicity
[15]
  cardiovascular parameters (blood pressure, heart rate, cardiac repolarization): affected cardiovascular (CV) parameters
